Experimental data taken from patent publication US9879036B2, “Mitochondrial aldehyde dehydrogenase-2 binding compounds and methods of use thereof” (Aviv Therapeutics, Inc., priority 2014, dated 2018).
Positions count from the first letter of the chain named.

Experiments:
Type in all cases: biochemical
ALDH2*1/*1 = biological target: T1, ALDH2*1/*1 (Homo sapiens, UniProt P05091); experiment: ALDH2 enzymatic activity, NADH accumulation at 340 nm, acetaldehyde substrate, wild type; conditions: relative to baseline enzymatic activity (100%); for activity at 2.5 µM: 2.5 μM compound; for activity at 5 µM: 5 μM compound; for activity at 10 µM: 10 μM compound; for activity at 20 µM: 20 μM compound
T1 construct: His-tag (N); made in house; host or cells: E. coli BL21 (pTrcHis vector)
T1 sequence (P05091 18-517): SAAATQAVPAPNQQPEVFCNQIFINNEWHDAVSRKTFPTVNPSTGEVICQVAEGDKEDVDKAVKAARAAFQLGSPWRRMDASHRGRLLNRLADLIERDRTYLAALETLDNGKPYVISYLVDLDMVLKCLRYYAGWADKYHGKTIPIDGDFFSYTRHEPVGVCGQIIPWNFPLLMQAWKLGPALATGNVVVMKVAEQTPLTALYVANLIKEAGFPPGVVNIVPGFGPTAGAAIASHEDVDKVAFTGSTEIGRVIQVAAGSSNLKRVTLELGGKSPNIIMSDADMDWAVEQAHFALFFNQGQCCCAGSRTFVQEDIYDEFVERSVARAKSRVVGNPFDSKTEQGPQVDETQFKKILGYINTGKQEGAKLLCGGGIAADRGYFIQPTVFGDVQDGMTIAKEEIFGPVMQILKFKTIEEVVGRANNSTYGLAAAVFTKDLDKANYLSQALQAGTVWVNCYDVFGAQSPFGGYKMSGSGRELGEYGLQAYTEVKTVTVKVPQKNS
Method: (§1) ALDH2 catalyzes the oxidative reaction of substrate acetaldehyde to acetic acid using NAD^+ as a cofactor. Enzymatic activity, or catalytic rate, of aldehyde dehydrogenase (ALDH2) are measured spectrophotometrically at UV wavelength λ340 nm by the accumulation of reduced product NADH derived from NAD^+. Absorbance at λ340 nm is quantitatively proportional to the amount of NADH being produced over time (6.22 O.D. unit=1 mmol of NADH, measured in a 1-cm width standard cuvette). This method is well-established in the literature [e.g. Rex et al., Alcohol Clin. Exp. Res. 9, 147 (1985)].
as §1, with “can be” for “are”
(§2) Cloning, expression and purification of human ALDH2 wild type and ALDH2*2 recombinant mutant enzymes: Full-length wild type human ALDH2 cDNA was purchased from ATCC (No. MGC-1806. GenBank ID: BC002967). The 18-amino acid mitochondria transport signal sequence was removed by PCR and cloned into the NheI/HindIII sites of a His-tag vector, pTrcHis, using standard molecular cloning techniques. The human ALDH2* cDNA construct containing the Asian E487K mutation was obtained by site-directed mutagenesis to create the E487K substitution of the wild type ALDH2. Both human clones were designed to express a recombinant protein with the His-tag at the N-terminus of the protein. For the co-expression experiments of human ALDH2 wild type and ALDH2*2 heterotetramers, a wild type ALDH2 gene and a ALDH2 E487K gene were inserted separately into the two multiple cloning sites of pETDuet-1 vector. (Novagen, CA, USA). All the vectors were transformed into BL21 E. coli host cells and subjected to 0.5 mM IPTG induction for protein expression at 30° C. Purifications of the recombinant proteins by affinity nickel columns (HisTrap, GE Healthy Science, USA) were carried out using standard protocols according to manufacturer's instructions (Novagen, USA).
(§3) ALDH2 catalyzes the oxidative reaction of substrate acetaldehyde to acetic acid using NAD^+ as a cofactor. Enzymatic activity, or catalytic rate, of aldehyde dehydrogenase (ALDH2) can be measured spectrophotometrically at UV wavelength λ340 nm by the accumulation of reduced product NADH derived from NAD^+. Because compounds of formula (I) are considered to be agonists or “activators” of ALDH2 the enzymatic activity measured will exceed 100% of the baseline enzymatic activity of the enzyme in its normal activation state. As the concentration of the compounds of formula (I) decreases from 20 micromolar to 0.16 micromolar in the presence of ALDH, a decrease in the activation of enzymatic activity is observed for the wild-type ALDH2*1/*1 and the heterozygous form ALDH2*1/*2.

ALDH2*1/*2 = biological target: T2, ALDH2*1/*2 (Homo sapiens, UniProt P05091, E504K); experiment: ALDH2 enzymatic activity, NADH accumulation at 340 nm, acetaldehyde substrate, heterozygous form; conditions: relative to baseline enzymatic activity (100%); for activity at 2.5 µM: 2.5 μM compound; for activity at 5 µM: 5 μM compound; for activity at 10 µM: 10 μM compound; for activity at 20 µM: 20 μM compound
T2 construct: His-tag; made in house; host or cells: E. coli BL21 (pETDuet-1 co-expression)
T2 sequence (P05091 18-517): T1 sequence (P05091 18-517)
T2 sequence (P05091 18-517 E504K): T1 sequence (P05091 18-517) with E487K
Method: as §1
as §1, with “can be” for “are”
as §2, §3

ALDH2 = biological target: T3, ALDH2 (Homo sapiens, UniProt P05091); experiment: ALDH2 activity with 20 μM of the compound (Table 3); conditions: 20 μM compound
T3 construct: His-tag (N); made in house; host or cells: E. coli BL21
T3 sequence (P05091 18-517): T1 sequence (P05091 18-517)
Method: as §1
as §1, with “can be” for “are”
as §3

Compound	activity at 2.5 µM (ALDH2*1/*1) [%]	activity at 5 µM (ALDH2*1/*1) [%]	activity at 10 µM (ALDH2*1/*1) [%]	activity at 20 µM (ALDH2*1/*1) [%]	activity at 2.5 µM (ALDH2*1/*2) [%]	activity at 5 µM (ALDH2*1/*2) [%]	activity at 10 µM (ALDH2*1/*2) [%]	activity at 20 µM (ALDH2*1/*2) [%]	activity at 20 µM (ALDH2) [%]
COc1ccc(CNC(=O)c2cc(-c3ccsc3CO)cnc2OCC2CC2)cc1F [AC25, 2-(cyclopropylmethoxy)-N-(3-fluoro-4-methoxybenzyl)-5-(2-(hydroxymethyl)thiophen-3-yl)nicotinamide]	273	341	422	382	267	321	343	260	> 250
COc1ccc(CNC(=O)c2cc(-c3ccccc3CO)cnc2OCC2CC2)cc1F [AC1, 2-(cyclopropylmethoxy)-N-(3-fluoro-4-methoxybenzyl)-5-(2-(hydroxymethyl)phenyl)nicotinamide]	175	242	288	412	220	294	383	453	> 250
COc1ccc(CNC(=O)c2cc(-c3cccnc3CO)ccc2OCC2CC2)cc1F [AC7]	133	181	266	331	176	244	291	434	> 250
COc1ccc(CNC(=O)c2cc(-c3sccc3CO)cnc2OCC2CC2)cc1F [AC26, 2-(cyclopropylmethoxy)-N-(3-fluoro-4-methoxybenzyl)-5-(3-(hydroxymethyl)thiophen-2-yl)nicotinamide]	199	235	352	394	188	238	261	281	> 250
COc1ccc(CNC(=O)c2cc(-c3c(CO)ccc[n+]3[O-])ccc2OCC2CC2)cc1F [AC14, 2-(4-(cyclopropylmethoxy)-3-((3-fluoro-4-methoxybenzyl)carbamoyl)phenyl)-3-(hydroxymethyl)pyridine 1-oxide]	134	138	162	189	103	121	157	194	150 to 250
COc1ccc(CNC(=O)c2cc(-c3ccsc3CO)ccc2OCC2CC2)cc1F [AC27]	293	315	379	364	323	420	419	410	> 250
COc1ccc(CNC(=O)c2cc(-c3ccccc3CO)ncc2OCC2CC2)cc1F [AC3]	150	195	220	319	180	245	310	376	150 to 250
COc1ccc(CNC(=O)c2cc(-c3sccc3CO)ccc2OCC2CC2)cc1F [AC28]	197	252	366	430	201	239	338	456	> 250
COc1ccc(CNC(=O)c2cc(-c3c[n+]([O-])ccc3CO)ccc2OCC2CC2)cc1F [AC13]	164	168	215	237	146	195	247	296	150 to 250
COc1ccc(CNC(=O)c2cc(-c3c(F)cccc3CO)cnc2OCC2CC2)cc1F [AC19]	132	143	214	236	133	163	191	230	> 250
COc1ccc(CNC(=O)c2cc(-c3cccnc3CO)cnc2OCC2CC2)cc1F [AC11]	123	135	169	211	125	158	185	248	150 to 250
COc1ccc(CNC(=O)c2cc(-c3cc(F)ccc3CO)ccc2OCC2CC2)cc1F [AC17]	229	262	340	318	156	173	176	195	> 250
COc1ccc(CNC(=O)c2cc(-c3cscc3CO)ccc2OCC2CC2)cc1F [AC29]	283	334	422	445	260	349	392	423	> 250
COc1ccc(CNC(=O)c2cc(-c3ncccc3CO)ccc2OC(C)C)cc1F [AC102]	–	–	–	–	–	–	–	–	> 250
O=C(NCc1cc2c(cc1Cl)OCO2)c1cc(-c2ncccc2CO)ccc1OCC1CC1 [AC46]	–	–	–	–	–	–	–	–	100 to 150
CNCc1ccccc1-c1cnc(OCC2CC2)c(C(=O)NCc2ccc(OC)c(F)c2)c1 [AC70]	–	–	–	–	–	–	–	–	100 to 150
COc1ccc(CNC(=O)c2cc(-c3cnccc3CO)ccc2OC2CCCC2)cc1F [AC107]	–	–	–	–	–	–	–	–	> 250
COc1ccc(CNC(=O)c2cc(-c3ccccc3C(C)O)cnc2OCC2CC2)cc1F (centres unmarked) [AC89]	–	–	–	–	–	–	–	–	100 to 150
